Test results as given in patent US11390617B2, “Methods of treating non-Hodgkin lymphoma using 2-(2,6-dioxopiperidin-3-yl)-4-((2-fluoro-4-((3-morpholinoazetidin-1-yl)methyl)benzyl)amino)isoindoline-1,3-dione” (Celgene Corporation, priority 2019, dated 2022).
One block for each compound: values may come before it.

How the values were obtained:
[1] = tested on: OCI-LY10-Luc CNS DLBCL xenograft; assay: OCI-LY10-Luc CNS lymphoma xenograft model (intracranial); assay type: in vivo, Nude (nu/nu) mice; conditions: 30 mg/kg QD oral, 3 weeks
Method: Antitumor activity of Compound 1 was evaluated as a single agent in OCI-LY10-luc diffuse large B-cell lymphoma (DLBCL) xenografted intracranially into nude mice as a model for central nervous system (CNS) lymphoma.
CNS lymphoma study was conducted with OCI-LY-10 cells transfected with luciferase (OCI-LY-10-Luc). Nude (nu/nu) mice were inoculated intracranially into the right cerebral hemisphere of the brain with OCI-LY10-Luc cells. Following inoculation of animals, the tumors were allowed to grow for 5 days. On day 5 following tumor cell inoculation, the mice were imaged using IVIS100 imaging system. The mice having tumors with an average flux ranging between 1×10^7 and 2×10^7 photons/sec were pooled together and randomized into various treatment groups. Compound 1 was formulated in 0.5% Methyl Cellulose, 0.25% Tween 80 and 50 mM Citrate pH 3 (MCT) in water. The animals were orally administered vehicle (MCT) or Compound 1 once daily (QD) for 3 weeks. Doses of Compound 1 ranged between 3 and 30 mg/kg. The positive control pomalidomide (30 mg/kg, QD) formulated in aqueous 0.5% CMC and 0.25% Tween-80 was administered PO. The animals were imaged for bioluminescence once a week using IVIS100 imaging system and monitored for survival. Statistical analysis was performed using a log-rank test between Compound 1-treated and vehicle-treated control groups.

[2] = tested on: WSU-DLCL2 DLBCL xenograft tumors; assay: WSU-DLCL2 (DLBCL) xenograft model; assay type: in vivo, female SCID mice; conditions: rituximab 10 mg/kg intraperitoneally BIW, single agent
Method: (§1) Female 6- to 8-weeks-old CB17 SCID mice were obtained from Charles River Laboratories. Mice were housed in a barrier facility in micro-isolator cages at 10 animals per cage. Mice were fed with Harlan-Teklad LM-485 Mouse/Rat Sterilizable Diet and autoclaved water ad libitum and maintained on a 12 hours light-dark cycle. Animals were acclimatized to the animal housing facility for a period of 7 days before the beginning of the experiment. All animal studies were performed under protocols approved by Institutional Animal Care and Use Committees.
Suspensions of Compound 1 were pared in aqueous 0.5% Methyl Cellulose, 0.25% Tween 80 and 50 mM Citrate pH 3. The formulations were homogenized using a Teflon pestle and mortar (Potter-Elvehjem tissue grinder). For multiday studies, the compound was freshly formulated every day. Compound 1 and vehicle were administered by oral gavage. Rituximab was diluted in 0.9% saline and administered intraperitoneally.
Tumor cells were injected subcutaneously in the flank region above the right hind legs of female CB17 SCID mice. When the tumor volumes reach to approximately 200 mm^3, mice bearing tumors of 150-300 mm^3 were randomly assigned to receive oral doses of vehicle, Compound 1, rituximab or combination of Compound 1 (5 days on and 2 days off for 3 weeks) and rituximab (twice a week) for the duration of the study. Tumor volumes were determined before the initiation of treatment and were considered as the starting volumes. Tumors were measured twice a week for the duration of the study. The long and short axes of each tumor were measured using a digital caliper in millimeters. The tumor volumes were calculated using the formula: width^2×length/2. The tumor volumes were expressed in cubic millimeters (mm^3).
Xenograft data are expressed as mean±SEM. Statistical analyses were performed using GraphPad Prism. […]
Xenograft study was conducted with female SCID mice bearing WSU-DLCL2 DLBCL xenograft tumors. […] Tumors were measured twice a week using calipers and tumor volumes were calculated using the formula of W^2×L/2. […]

[3] = tested on: SUDHL-6 DLBCL xenograft tumors; assay: SUDHL-6 (DLBCL) xenograft model; assay type: in vivo, female SCID mice; conditions: rituximab 10 mg/kg intraperitoneally BIW, single agent
Method: as §1
(§2) Suspensions of Compound 1 were pared in aqueous 0.5% Methyl Cellulose, 0.25% Tween 80 and 50 mM Citrate pH 3. […]
(§3) Tumor cells were injected subcutaneously in the flank region above the right hind legs of female CB17 SCID mice. […] Tumor volumes were determined before the initiation of treatment and were considered as the starting volumes. Tumors were measured twice a week for the duration of the study. The long and short axes of each tumor were measured using a digital caliper in millimeters. The tumor volumes were calculated using the formula: width^2×length/2. […]
(§4) Xenograft data are expressed as mean±SEM. […]
Xenograft study was conducted with female SCID mice bearing SUDHL-6 DLBCL xenograft tumors. […] Tumors were measured twice a week using calipers and tumor volumes were calculated using the formula of W^2×L/2. […]

[4] = tested on: RL follicular lymphoma xenograft tumors; assay: RL (follicular lymphoma) xenograft model, alone and in combination with rituximab; assay type: in vivo, female SCID mice; conditions: rituximab 25 mg/kg intraperitoneally BIW, single agent
Method: as §1, §2, §3, §4
Xenograft study was conducted with female SCID mice bearing RL follicular lymphoma xenograft tumors. […] Tumors were measured twice a week using calipers and tumor volumes were calculated using the formula of W^2×L/2. […]

SU-DHL-4 cell line = assay: Cell proliferation and viability assay using SU-DHL-4 cell line (Cell Titer-Glo); assay type: cell-based; conditions: Homo sapiens, SU-DHL-4, 120 hours
Method: The following exemplary assay uses a DLBCL cell line, for example, the SU-DHL-4 cell line (Deutsche Sammlung von Mikroorganismen und Zellkulturen GmbH [DSMZ]: catalogue number ACC-495) at 120 hours post-treatment. The seeding density for SU-DHL-4 can be optimized to ensure assay linearity in 1536-well plates.
Increasing concentrations (0.5 nM to […]) of Compounds 1, 2, and 3 were each spotted in a 20-point dilution fashion (unevenly spaced data points) via an acoustic dispenser (EDC ATS-100) into an empty 1536-well plate. The DMSO concentration was kept constant for a final assay concentration of 0.1% DMSO. Prior to testing, SU-DHL-4 cells were grown in RPMI-1640 (Roswell Park Memorial Institute-1640) medium with 10% FBS (fetal bovine serum: HyClone) and expanded in culture flasks to provide sufficient amounts of starting material. Cells were then diluted to 500 cells per well in a 5 μL volume, and added directly to the compound-spotted 1536-well plates. Cells were allowed to grow for 120 hours in 5% CO2 at 37° C. At the time when exposure of cells to compound began (t0), initial viable cell number was assessed via Cell Titer-Glo® Luminescent Cell Viability Assay at a 1 vol: 2 vol ratio according to manufacturer's instructions (Promega Corporation, Madison, Wis.) by quantifying the level of luminescence generated by adenosine-5′-triphosphate (ATP) present in viable cells. After 120 hours, cell viability of the treated cells was assessed via Cell Titer-Glo© and read for luminescence. All growth inhibition curves were processed and evaluated using Activity Base (IDBS, Alameda, Calif.). Cell viability IC50 values were calculated using a four parameter logistic model (sigmoidal dose-response model): y=(A+((B−A)/(1+((C/x)^D)))) wherein: A=YMin B=YMax C=EC50 D=Hill slope IC50=the concentration of the compound when Y=50% of DMSO control Y=cell viability measured as luminescence unit, and x=concentration of compound.

Compound: Nc1cccc2c1C(=O)N(C1CCC(=O)NC1=O)C2=O (stereo not shown) [Pomalidomide, reference compound]
- % BLI Inhibition on Day 26 ([1]; relative to vehicle control): 68.8%
- Median Survival ([1]; vehicle 35 days): 50 days

Compound: Rituximab [reference compound]
- tumor volume reduction [2]: 66%
- tumor volume reduction [3]: 54%
- tumor volume reduction [4]: 56%

- IC50 (SU-DHL-4 cell line): < 200 nM
Compound: O=C1CC[C@@H](N2C(=O)c3cccc(NCc4ccc(CN5CC(N6CCOCC6)C5)cc4F)c3C2=O)C(=O)N1 [Compound 2, (R)-2-(2,6-dioxopiperidin-3-yl)-4-((2-fluoro-4-((3-morpholinoazetidin-1-yl)methyl)benzyl)amino)isoindoline-1,3-dione]

- IC50 (SU-DHL-4 cell line): < 200 nM
Compound: O=C1CCC(N2C(=O)c3cccc(NCc4ccc(CN5CC(N6CCOCC6)C5)cc4F)c3C2=O)C(=O)N1 (stereo not shown) [Compound 3, 2-(2,6-dioxopiperidin-3-yl)-4-((2-fluoro-4-((3-morpholinoazetidin-1-yl)methyl)benzyl)amino)isoindoline-1,3-dione]
